≈ marks a conversion by molar mass, not a printed value.
Experiments:
ESBL-Ec biofilm [1] = assay: Biofilm metabolic activity by XTT-reduction assay; assay type: cell-based, Escherichia coli
Description: (§1) For all bacterial strains considered in the study, biofilm was performed on a 96‐well plate inoculated with 200 µL of a bacterial suspension 1 × 10^6 CFU/mL and incubated 24 h at 37°C. After incubation for 4 h at 37°C, the medium was aspirated, non‐adherent cells were removed, washed with PBS and added with 200 µL of fresh medium. […] Similarly, to perform fungal biofilm, the different Candida species were grown for 24 h at 28°C on a multi‐wells plate, washed twice with sterile PBS, and then resuspended at 37°C in RPMI 1640 plus 10% FBS at 2.5 × 10^7 cells. After incubation for 3 h at 37°C in six‐well polystyrene plates, the medium was aspirated, non‐adherent cells were removed and washed with PBS.
(§2) The biofilm metabolic activity was evaluated by XTT assay, that highpoints the activity through the reduction of the tetrazolium salt to formazan. After the removal of supernatant and washing with PBS, a solution of XTT‐menadione solution were added to wells. The XTT‐menadione was prepared dissolving XTT powder in prewarmed PBS (37°C) at 0.5 g/L. The solution was sterilized through a 0.22 μm pore size filter. Before each assay, the XTT solution was thawed and supplemented with menadione, a 10 mM stock dissolved in acetone to a final concentration 1 μM. Plates were incubated for 3 h at 37°C in the dark and then the absorbance was measured at 492 nm using the microplate reader, Tecan Sunrise.

E. coli biofilm [2] = assay: Biofilm metabolic activity by XTT-reduction assay; assay type: cell-based, Escherichia coli
Description: as §1, §2

MRSA biofilm [3] = assay: Biofilm metabolic activity by XTT-reduction assay; assay type: cell-based, Staphylococcus aureus
Description: as §1, §2

S. aureus biofilm [4] = assay: Biofilm metabolic activity by XTT-reduction assay; assay type: cell-based, Staphylococcus aureus
Description: as §1, §2

ESBL-Ec biofilm [5] = assay: Biofilm biomass by crystal violet (CV) assay; assay type: cell-based, Escherichia coli
Description: as §1
(§3) To quantify bacterial and Candida biofilm biomass, CV, a dye able to color the biofilm matrix, was used. Firstly, after the removal of supernatant and washing with PBS, biofilm was fixed adding 100 µL of 99% methanol for 15 min. Then, methanol was rinsed off and the plates were air‐dried. Subsequently, 100 µL of a 0.1% of CV solution were added to wells and, after 20 min of contact, the plates were washed under running tap water. To dissolve the bounded CV, 150 µL of 33% of glacial acetic acid were added to wells. The absorbance was measured at 590 nm using an automatic microplate reader, Tecan Sunrise (Tecan Group Ltd., Männedorf, Switzerland).

E. coli biofilm [6] = assay: Biofilm biomass by crystal violet (CV) assay; assay type: cell-based, Escherichia coli
Description: as §1, §3

MRSA biofilm [7] = assay: Biofilm biomass by crystal violet (CV) assay; assay type: cell-based, Staphylococcus aureus
Description: as §1, §3

C. krusei 44956 = assay: MIC and MFC by microbroth dilution; assay type: cell-based, Candida krusei; settings: Pichia kudriavzevii, 44956, C. krusei
Description: (§4) No substance was added, in one well, for growth control. A bacterial suspension of 1 × 10^8 CFU/mL was inoculated into all wells of the plate and incubated for 24 h at 37°C. […] The dilutions ranged from 4 to 2000 µg/mL for the substances. The inoculum size was about 2.5×10^3 cells/mL. The plates were incubated at 28°C for 24–48 h. The MIC was determined as the lowest substances' concentration where no visible bacterial or fungal growth was observed. […] Each antimicrobial assay was performed in triplicate.

C. albicans biofilm [8] = assay: Biofilm metabolic activity by XTT-reduction assay; assay type: cell-based, Candida albicans
Description: as §1, §2

C. krusei biofilm [9] = assay: Biofilm biomass by crystal violet (CV) assay; assay type: cell-based, Candida krusei
Description: as §1, §3

C. glabrata biofilm [10] = assay: Biofilm biomass by crystal violet (CV) assay; assay type: cell-based, Candida glabrata
Description: as §1, §3

C. tropicalis biofilm [11] = assay: Biofilm biomass by crystal violet (CV) assay; assay type: cell-based, Candida tropicalis; settings: substance alone at MIC
Description: as §1, §3

[12] = test system: methicillin resistant S. aureus (MRSA); assay: MIC and MBC by microbroth dilution; assay type: cell-based; settings: Staphylococcus aureus
Description: as §4

[13] = test system: Staphylococcus aureus ATCC 6538; assay: MIC and MBC by microbroth dilution; assay type: cell-based
Description: as §4

[14] = test system: Extended Spectrum-Beta-Lactamase producing E. coli (ESBL-Ec); assay: MIC and MBC by microbroth dilution; assay type: cell-based; settings: Escherichia coli, ESBL-Ec
Description: as §4

[15] = test system: Escherichia coli MG1655 (ATCC 700926); assay: MIC and MBC by microbroth dilution; assay type: cell-based
Description: as §4

C. glabrata biofilm [16] = assay: Biofilm metabolic activity by XTT-reduction assay; assay type: cell-based, Candida glabrata
Description: as §1, §2

C. glabrata DSY562 = assay: MIC and MFC by microbroth dilution; assay type: cell-based, Candida glabrata; settings: Nakaseomyces glabratus, DSY562, C. glabrata
Description: as §4

C. krusei biofilm [17] = assay: Biofilm metabolic activity by XTT-reduction assay; assay type: cell-based, Candida krusei
Description: as §1, §2

C. tropicalis biofilm [18] = assay: Biofilm metabolic activity by XTT-reduction assay; assay type: cell-based, Candida tropicalis; settings: biofilm in formation (3 h), substance alone at MIC
Description: as §1, §2

S. aureus biofilm [19] = assay: Biofilm biomass by crystal violet (CV) assay; assay type: cell-based, Staphylococcus aureus
Description: as §1, §3

C. albicans biofilm [20] = assay: Biofilm biomass by crystal violet (CV) assay; assay type: cell-based, Candida albicans
Description: as §1, §3

C. albicans AIDS 68 = assay: MIC and MFC by microbroth dilution; assay type: cell-based; settings: Candida albicans, AIDS68, C. albicans
Description: as §4

C. tropicalis 45,615 = assay: MIC and MFC by microbroth dilution; assay type: cell-based; settings: Candida tropicalis, C. tropicalis
Description: as §4

[21] = biofilm in formation, sub-MIC concentrations alone or in combination (Table 5)
[22] = preformed biofilm, sub-MIC concentrations alone or in combination (Table 5)
[23] = planktonic, 24-48 h, read-out: MIC
[24] = biofilm in formation (3 h), substance alone at MIC
[25] = biofilm in formation, sub-MIC concentrations alone or in combination (Table 5), listed as T
[26] = preformed biofilm (24 h), substance alone at MIC
[27] = biofilm in formation (4 h), substance alone at MIC
[28] = biofilm in formation (3 h), substance alone at MIC, listed as thymol
[29] = planktonic, 24 h, read-out: MIC

## CNC(C)C1CCC(N)C(OC2C(N)CC(N)C(OC3OCC(C)(O)C(NC)C3O)C2O)O1 (stereo not shown) [GM, gentamicin, reference compound]
ESBL-Ec biofilm [1]; [21]
  Percentage of metabolic activity reduction: 50%
E. coli biofilm [2]; [21]
  Percentage of metabolic activity reduction: 35.9%
E. coli biofilm [2]; [22]
  Percentage of metabolic activity reduction: 48.3%
MRSA biofilm [3]; [21]
  Percentage of metabolic activity reduction: 22.3%
MRSA biofilm [3]; [22]
  Percentage of metabolic activity reduction: 16%
S. aureus biofilm [4]; [22]
  Percentage of metabolic activity reduction: 15.2%
ESBL-Ec biofilm [5]; [21]
  Percentage of biomass reduction: 66.7%
ESBL-Ec biofilm [5]; [22]
  Percentage of biomass reduction: 48.9%
E. coli biofilm [6]; [21]
  Percentage of biomass reduction: 48%
E. coli biofilm [6]; [22]
  Percentage of biomass reduction: 59.8%
MRSA biofilm [7]; [21]
  Percentage of biomass reduction: 57.6%
MRSA biofilm [7]; [22]
  Percentage of biomass reduction: 33.6%

## Cc1ccc(C(C)C)c(O)c1 [Thymol, 2‐isopropyl‐5‐methylphenol]
C. krusei 44956; [23]
  MIC: ≥ 2000 µg/mL
C. krusei 44956; read-out: MFC
  MFC: ≥ 2000 µg/mL
C. albicans biofilm [8]; [24]
  Percentage of metabolic activity reduction: 85.1%
C. albicans biofilm [8]; [21]
  Percentage of metabolic activity reduction: about 22%
C. albicans biofilm [8]; [25]
  Percentage of metabolic activity reduction: 24.0%
C. albicans biofilm [8]; [26]
  Percentage of metabolic activity reduction: 84.1%
C. albicans biofilm [8]; preformed biofilm (24 h), substance alone at MIC, listed as thymol
  Percentage of metabolic activity reduction: 80%
C. albicans biofilm [8]; [22]
  Percentage of metabolic activity reduction: 9.0%
C. krusei biofilm [9]; [24]
  Percentage of biomass reduction: no effect
C. krusei biofilm [9]; [26]
  Percentage of biomass reduction: 18.5%
ESBL-Ec biofilm [1]; [27]
  Percentage of metabolic activity reduction: 77.9%
ESBL-Ec biofilm [1]; [21]
  Percentage of metabolic activity reduction: ~50%
ESBL-Ec biofilm [1]; [25]
  Percentage of metabolic activity reduction: 52%
ESBL-Ec biofilm [1]; [26]
  Percentage of metabolic activity reduction: 74%
E. coli biofilm [2]; [27]
  Percentage of metabolic activity reduction: 84.8%
E. coli biofilm [2]; [21]
  Percentage of metabolic activity reduction: ~50%
E. coli biofilm [2]; [25]
  Percentage of metabolic activity reduction: 51.3%
E. coli biofilm [2]; [26]
  Percentage of metabolic activity reduction: 74%
E. coli biofilm [2]; [22]
  Percentage of metabolic activity reduction: 22.4%
C. glabrata biofilm [10]; [24]
  Percentage of biomass reduction: 52.1%
C. glabrata biofilm [10]; [28]
  Percentage of biomass reduction: about 40%
C. glabrata biofilm [10]; [26]
  Percentage of biomass reduction: 17.5%
MRSA biofilm [3]; [27]
  Percentage of metabolic activity reduction: 96.3%
MRSA biofilm [3]; [26]
  Percentage of metabolic activity reduction: 97.5%
MRSA biofilm [3]; [22]
  Percentage of metabolic activity reduction: 17.2%
S. aureus biofilm [4]; [27]
  Percentage of metabolic activity reduction: 90%
S. aureus biofilm [4]; [25]
  Percentage of metabolic activity reduction: 12%
S. aureus biofilm [4]; [26]
  Percentage of metabolic activity reduction: 90%
C. tropicalis biofilm [11]; biofilm in formation (3 h)
  Percentage of biomass reduction: 37.1%
C. tropicalis biofilm [11]; biofilm in formation (3 h), listed as thymol
  Percentage of biomass reduction: about 40%
C. tropicalis biofilm [11]; preformed biofilm (24 h)
  Percentage of biomass reduction: 11.8%
[12]; [29]
  MIC: 250 µg/mL (≈ 1660 µM)
[12]; read-out: MBC
  MBC: 250 µg/mL (≈ 1660 µM)
[13]; ATCC6538, S. aureus 6538, planktonic, 24 h, read-out: MIC
  MIC: 250 µg/mL (≈ 1660 µM)
[13]; ATCC6538, S. aureus 6538, read-out: MBC
  MBC: 250 µg/mL (≈ 1660 µM)
[14]; [29]
  MIC: 125 µg/mL (≈ 832 µM)
[14]; read-out: MBC
  MBC: 250 µg/mL (≈ 1660 µM)
[15]; E. coli MG1655, planktonic, 24 h, read-out: MIC
  MIC: 125 µg/mL (≈ 832 µM)
[15]; E. coli MG1655, read-out: MBC
  MBC: 250 µg/mL (≈ 1660 µM)
C. glabrata biofilm [16]; [24]
  Percentage of metabolic activity reduction: 90%
C. glabrata biofilm [16]; [26]
  Percentage of metabolic activity reduction: 9.6%
C. glabrata biofilm [16]; [22]
  Percentage of metabolic activity reduction: 11.4%
C. glabrata DSY562; [23]
  MIC: ≥ 2000 µg/mL
C. glabrata DSY562; read-out: MFC
  MFC: ≥ 2000 µg/mL
C. krusei biofilm [17]; [24]
  Percentage of metabolic activity reduction: 71.7%
C. krusei biofilm [17]; [21]
  Percentage of metabolic activity reduction: 25%
C. krusei biofilm [17]; [26]
  Percentage of metabolic activity reduction: 47%
C. krusei biofilm [17]; [22]
  Percentage of metabolic activity reduction: 25.1%
ESBL-Ec biofilm [5]; [27]
  Percentage of biomass reduction: 70%
ESBL-Ec biofilm [5]; [26]
  Percentage of biomass reduction: 69.8%
E. coli biofilm [6]; [27]
  Percentage of biomass reduction: 87.7%
E. coli biofilm [6]; [26]
  Percentage of biomass reduction: 87%
C. tropicalis biofilm [18]
  Percentage of metabolic activity reduction: 53.9%
MRSA biofilm [7]; [27]
  Percentage of biomass reduction: 90%
MRSA biofilm [7]; [25]
  Percentage of biomass reduction: 22.6%
MRSA biofilm [7]; [26]
  Percentage of biomass reduction: 87%
MRSA biofilm [7]; [22]
  Percentage of biomass reduction: 31.3%
S. aureus biofilm [19]; [27]
  Percentage of biomass reduction: 79.7%
S. aureus biofilm [19]; [25]
  Percentage of biomass reduction: 11.6%
S. aureus biofilm [19]; [26]
  Percentage of biomass reduction: 82.7%
C. albicans biofilm [20]; [24]
  Percentage of biomass reduction: 44.6%
C. albicans biofilm [20]; [28]
  Percentage of biomass reduction: about 40%
C. albicans biofilm [20]; [21]
  Percentage of biomass reduction: about 22%
C. albicans biofilm [20]; [25]
  Percentage of biomass reduction: 22.5%
C. albicans AIDS 68; [23]
  MIC: ≥ 2000 µg/mL
C. albicans AIDS 68; read-out: MFC
  MFC: ≥ 2000 µg/mL
C. tropicalis 45,615; [23]
  MIC: ≥ 2000 µg/mL
C. tropicalis 45,615; read-out: MFC
  MFC: ≥ 2000 µg/mL

## OC(Cn1cncn1)(Cn1cncn1)c1ccc(F)cc1F [FLC, fluconazole, reference compound]
C. albicans biofilm [8]; [21]
  Percentage of metabolic activity reduction: 25.1%
C. albicans biofilm [8]; [22]
  Percentage of metabolic activity reduction: 6.9%
C. krusei biofilm [9]; [22]
  Percentage of biomass reduction: 14%
C. glabrata biofilm [10]; [21]
  Percentage of biomass reduction: 20.5%
C. glabrata biofilm [16]; [21]
  Percentage of metabolic activity reduction: 27.1%
C. glabrata biofilm [16]; [22]
  Percentage of metabolic activity reduction: 5.3%
C. krusei biofilm [17]; [22]
  Percentage of metabolic activity reduction: 14%
C. albicans biofilm [20]; [21]
  Percentage of biomass reduction: 30.6%

From publication PMC12541891 (MicrobiologyOpen, 2025)
